Results reported in patent US11925629B2, “Heterocyclic inhibitors of ERK1 and ERK2 and their use in the treatment of cancer” (Asana Biosciences, LLC, priority 2015, dated 2024).
Where two headings read alike, the source gives them in different places.

Experiments:
[1] = tested on: HT-29 (colorectal carcinoma, B-RafV600E) cells; assay: Cell proliferation (Alamar Blue) assay, HT-29; assay type: cell-based, human; settings: Homo sapiens, HT-29, HT29 cells
How it was run: (§1)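 Fluorescence read-out (ex 540 nm, em 590 nm) after 1-3 h with 1× Alamar Blue, following 72 h compound exposure at 37° C./5% CO2. Compounds tested at typically 0.0005 to 10 uM, 3-fold steps; IC50 by sigmoidal dose-response (variable slope).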

[2] = tested on: human melanoma xenograft model (A375) harboring B-RAF V600E mutation; assay: A375 human melanoma xenograft model, tumor growth inhibition; assay type: in vivo, mice; settings: 50 mg/kg BID orally for 19 days
Method: Foxn1 nu/nu strain of female mice (obtained from Charles River Laboratories, USA), 8-10 weeks of age, body weight range 23-25 g, were used for the tumor xenograft efficacy studies. Human cancer cell lines (such as melanoma A375, colorectal HT29, pancreatic BxPC3, colorectal HCT116, and lung A549) were first grown in vitro, and then about five million (5×10^6) of these cells in 100 μL of serum free medium were mixed with an equal amount of matrigel, and the entire mixture was injected subcutaneously at the right flank region of mice. The tumors were measured with Vernier calipers periodically after the first week of injection. […]
For PO dosing, the compounds were prepared in a formulation containing 0.5% Methyl cellulose and 0.01% Tween 80. […] Tumors size and body weights were measured twice or thrice in a week. […]
Changes in tumor volume (Δ volumes) for each treated (T) and control (C) group were calculated by subtracting the mean tumor volume on the first day of treatment (starting day) from the mean tumor volume on the specified observation day. […] Percentage tumor growth inhibition was calculated as [100−% T/C]. Percentage body weight change was calculated as [(Body weight on specified observation day−Body weight on starting day)/Body weight on starting day]×100. […]

[3] = tested on: HCT116 (colorectal carcinoma, K Ras G13D) cells; assay: Cell proliferation (Alamar Blue) assay, HCT116; assay type: cell-based, human; settings: Homo sapiens, HCT-116, HCT116 cells
How it was run: as §1

[4] = tested on: phosphorylation of RSK1(S380) (the downstream target of ERK1/2); assay: Phospho-RSK1(S380) ELISA assay in HT-29 cells; assay type: cell-based, human; settings: Homo sapiens, HT-29, HT29 cells, read-out: Mechanistic Cell Assay RSK1 Phos HT29 IC50
How it was run: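 IC50 values derive from a variable-slope sigmoidal fit of sandwich-ELISA signal (450 nm) for RSK1 Ser380 phosphorylation. The cells were B-RafV600E HT-29 colorectal line, exposed to serially diluted compound for 2 h after overnight seeding, then lysed at 4° C.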

[5] = tested on: phospho-RSK (the downstream target of ERK1/2); assay: Pharmacodynamic assay, phospho-RSK in A375 tumor samples; assay type: in vivo, mice; settings: Mus musculus, A-375; A375 tumor samples harvested at 1 h after dosing at 50 mg/kg PO, compared to vehicle control
Method: Foxn1 nu/nu strain of female mice (obtained from Charles River Laboratories, USA), 8-10 weeks of age, body weight range 23-25 g, were used for the tumor xenograft efficacy studies. Human cancer cell lines (such as melanoma A375, colorectal HT29, pancreatic BxPC3, colorectal HCT116, and lung A549) were first grown in vitro, and then about five million (5×10^6) of these cells in 100 μL of serum free medium were mixed with an equal amount of matrigel, and the entire mixture was injected subcutaneously at the right flank region of mice. The tumors were measured with Vernier calipers periodically after the first week of injection. When the tumor volume reached 120-150 mm^3 (about 3-4 weeks after injection) the animals were randomized into different groups so that their tumor volume was approximately the same in all groups.
For PO dosing, the compounds were prepared in a formulation containing 0.5% Methyl cellulose and 0.01% Tween 80. For IV, SC, or IP dosing, the compounds were prepared in 6% solutol-ethanol (1:1), 6% DMSO and 88% saline. Animals were dosed with compounds prepared in specific formulations via PO, IP or SC route either QD or BID at the required doses. Tumors size and body weights were measured twice or thrice in a week. Tumors were harvested at the end of the study after euthanizing the animals according to approved protocols. […]

ERK2 = biological target: T1, ERK2 (Homo sapiens, UniProt P28482); assay: ERK2 HTRF (biochemical) assay
T1 construct: purchased Jubilant Biosys
Method: (§2) ERK1 and ERK2 HTRF (Biochemical) Assays
These assays employed a homogeneous time resolved fluorescence (HTRF) technique. The compounds were serially diluted by half-log with concentrations ranging from 0.0005 to 10 uM in the assay buffer (50 mM Tris pH=7.5, 1 mM EGTA, 2 mM DTT, 10 mM MgCl2, 0.100 Tween-20) and 20 uL of substrate-ATP mix [1 uM Biotin-LC-Myelin Basic Protein (MBP) derivatized Peptide (Anaspec)-24 uM ATP (Sigma)] was added to each well of the assay plate. Then 10 uL of enzyme mix [25 nM ERK1 or ERK2 (Jubilant Biosys) in assay buffer] was added to each well. The plate was incubated at room temperature for 60 min with shaking. The HTRF mix [625 nM LANCER Ultra Europium-anti-phospho-MBP (Perkin Elmer) and 2 nM Phycolink® Streptavidin-Allophycocyanin (SA-APC) (Prozyme) in HTRF buffer (50 mM Tris-HCl pH=7.5, 100 mM NaCl, 0.1% BSA, 0.05% Tween20, 0.5 mM EDTA)] was prepared and 75 uL of this mix was added to the HTRF plate. After incubation for 60 min at room temperature, 10 uL of the reaction mixture was transferred to the HTRF assay plate and incubated for 45 min at room temperature with shaking. Plate was read using Pherastar in HTRF mode (excitation 337 nm, emission 665 & 620 nm). The IC50 values (half maximal inhibitory concentration values) were subsequently determined using a sigmoidal dose-response curve (variable slope) in GraphPad Prism® 5 software.

ERK1 = biological target: T2, ERK1 (Homo sapiens, UniProt P27361); assay: ERK1 HTRF (biochemical) assay
T2 construct: purchased Jubilant Biosys
Method: as §2
These assays employed a homogeneous time resolved fluorescence (HTRF) technique. […] The plate was incubated at room temperature for 60 min with shaking. […] The IC50 values (half maximal inhibitory concentration values) were subsequently determined using a sigmoidal dose-response curve (variable slope) in GraphPad Prism® 5 software.

T1 sequence (P28482 whole entry): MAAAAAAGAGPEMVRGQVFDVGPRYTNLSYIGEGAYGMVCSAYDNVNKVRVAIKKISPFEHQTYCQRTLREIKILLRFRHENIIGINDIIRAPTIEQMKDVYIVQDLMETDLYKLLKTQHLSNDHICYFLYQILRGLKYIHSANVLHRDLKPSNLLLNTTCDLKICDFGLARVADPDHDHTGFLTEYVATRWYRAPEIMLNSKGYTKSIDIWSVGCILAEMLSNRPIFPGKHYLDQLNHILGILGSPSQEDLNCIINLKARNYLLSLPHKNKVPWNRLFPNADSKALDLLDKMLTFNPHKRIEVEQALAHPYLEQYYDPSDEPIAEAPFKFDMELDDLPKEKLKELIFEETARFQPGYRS
T2 sequence (P27361 whole entry): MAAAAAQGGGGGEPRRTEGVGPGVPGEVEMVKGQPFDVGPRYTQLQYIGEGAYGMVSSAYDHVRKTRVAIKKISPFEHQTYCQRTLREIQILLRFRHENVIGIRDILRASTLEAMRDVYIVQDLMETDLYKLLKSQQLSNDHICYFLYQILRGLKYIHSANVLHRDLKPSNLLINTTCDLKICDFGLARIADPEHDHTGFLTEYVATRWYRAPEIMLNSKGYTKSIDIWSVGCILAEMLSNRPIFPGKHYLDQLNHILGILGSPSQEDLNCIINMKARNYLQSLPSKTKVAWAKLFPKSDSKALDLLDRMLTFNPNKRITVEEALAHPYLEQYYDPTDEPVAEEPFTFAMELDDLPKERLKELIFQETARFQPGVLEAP

| IC50 [1] [µM] | IC50 [3] [µM] | Structure (SMILES) | IC50 ([4]; phospho-RSK1(S380)) [µM] | inhibition at 50 mg/kg [5] [%] | also measured |
| --- | --- | --- | --- | --- | --- |
| ≤ 0.1 | ≤ 0.1 | Cc1cnc(N[C@H]2CCOC2)nc1-n1cnc(C(=O)N[C@H](CN)c2cccc(Cl)c2)c1 [Example 255, N-((S)-2-amino-1-(3-chlorophenyl)ethyl)-1-(5-methyl-2-(((S)-tetrahydrofuran-3-yl)amino)pyrimidin-4-yl)-1H-imidazole-4-carboxamide] | ≤ 0.1 | – | body weight loss [2]: no significant body weight loss |
| – | – | Cc1cnc(NC2CCOCC2)nc1-n1cnc(C(=O)N[C@H](CO)c2cccc(Cl)c2)c1 [Example 211] | – | ~84 | – |
| – | – | Cc1cnc(NC2CCOCC2)nc1-n1cnc(C(=O)NC(CO)c2cccc(Cl)c2)c1 (stereo not shown) [Example 201] | – | ~66 | – |
| > 2.5 | > 2.5 | Cc1cnc(N[C@H]2CCOC2)nc1-n1cnc(C(=O)NCc2ccc(Cl)c(F)c2)c1 [Example 324, (S)-N-(4-chloro-3-fluorobenzyl)-1-(5-methyl-2-((tetrahydrofuran-3-yl)amino)pyrimidin-4-yl)-1H-imidazole-4-carboxamide] | – | – | IC50 [4]: 0.5 to 2.5 µM; IC50 (ERK2; HTRF): ≤ 0.05 µM; IC50 (ERK1; HTRF): < 0.05 µM |

| Structure (SMILES) | IC50 [1] [µM] | IC50 [3] [µM] | IC50 ([4]; phospho-RSK1(S380)) [µM] | inhibition at 50 mg/kg [5] [%] | also measured |
| --- | --- | --- | --- | --- | --- |
| Cc1cnc(NC2CCOCC2)nc1-n1cnc(C(=O)N[C@H](CN)c2cc(F)cc(Cl)c2)c1 [Compound #275, (S)—N-(2-Amino-1-(3-chloro-5-fluorophenyl)ethyl)-1-(5-methyl-2-((tetrahydro-2H-pyran-4-yl)amino)pyrimidin-4-yl)-1H-imidazole-4-carboxamide] | ≤ 0.1 | ≤ 0.1 | ≤ 0.1 | – | IC50 (ERK2; HTRF biochemical assay): ≤ 0.05 µM; IC50 (ERK1; HTRF biochemical assay): < 0.05 µM |
